Experimental data from ChEMBL document CHEMBL5537195, “Novel Covalent Probe Selectively Targeting Glutathione Peroxidase 4 In Vivo: Potential Applications in Pancreatic Cancer Therapy” (J Med Chem, 2024).
Activity calls are given as the source filed them. The rule behind the calls is not given here.

What was measured:
[1] = system: ASPC1; assay: Antiproliferative activity against human AsPC1 cells assessed as inhibition of cell growth incubated for 72 hrs by CCK-8 assay; type: functional, cell-based; details: ASPC1, 72 h
[2] = system: HPAF-II; assay: Antiproliferative activity against human HPAF-II cells assessed as inhibition of cell growth incubated for 72 hrs by CCK-8 assay; type: functional, cell-based
[3] = Toxicity in NOD-SCID mouse xenografted with human ASPC1 cells assessed as mortality at 10 mg/kg, ip administered for once daily for 14 days; type: organism-based; details: in vivo, 336 h, time 14 day
[4] = Toxicity in NOD-SCID mouse xenografted with human ASPC1 cells assessed as body weight loss at 10 mg/kg, ip administered for once daily for 14 days; type: organism-based; details: in vivo, 336 h, time 14 day
[5] = system: ASPC1; assay: Antitumor activity against human ASPC1 cells xenografted in NOD-SCID mouse assessed as reduction in tumor volume at 10 mg/kg, ip administered for 14 days; type: functional, organism-based; details: time 14.0 day
[6] = biological target: T1, Phospholipid hydroperoxide glutathione peroxidase GPX4 (Homo sapiens) (UniProt P36969); assay: Binding affinity to GPX4 in human ASPC1 cells at 0.2 uM by SDS-PAGE analysis; type: cell-based; details: time 0.1 hrs, TDE = time-dependent effect
T1 sequence (whole entry): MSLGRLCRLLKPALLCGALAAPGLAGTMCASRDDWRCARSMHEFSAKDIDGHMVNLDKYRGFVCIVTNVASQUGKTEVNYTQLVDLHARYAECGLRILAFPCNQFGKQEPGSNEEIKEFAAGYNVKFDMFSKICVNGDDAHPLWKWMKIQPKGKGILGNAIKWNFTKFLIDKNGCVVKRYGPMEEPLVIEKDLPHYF

[7] = biological target: T1, Phospholipid hydroperoxide glutathione peroxidase GPX4 (Homo sapiens); assay: Binding affinity to GPX4 in human ASPC1 cells incubated for 1 hr by SDS-PAGE analysis; type: cell-based; details: dose 0.02-0.2 µM
[8] = biological target: T1, Phospholipid hydroperoxide glutathione peroxidase GPX4 (Homo sapiens); assay: Binding affinity to GPX4 in human ASPC1 cells at 0.2 uM incubated for 1 hr in presence of N-ethynyl-N-methyl-4-((methyl(4(trifluoromethyl)phenyl)amino)methyl)benzenesulfonamide by SDS-PAGE analysis; type: cell-based
[9] = biological target: T1, Phospholipid hydroperoxide glutathione peroxidase GPX4 (Homo sapiens); assay: Binding affinity to GPX4 in human BXPC-3 cells at 0.2 uM incubated for 1 hr by SDS-PAGE analysis; type: cell-based
[10] = biological target: T1, Phospholipid hydroperoxide glutathione peroxidase GPX4 (Homo sapiens); assay: Binding affinity to GPX4 in human Panc1005 cells at 0.2 uM incubated for 1 hr by SDS-PAGE analysis; type: cell-based
[11] = biological target: T1, Phospholipid hydroperoxide glutathione peroxidase GPX4 (Homo sapiens); assay: Binding affinity to GPX4 in human HPAF-II cells at 0.2 uM incubated for 1 hr by SDS-PAGE analysis; type: cell-based
[12] = biological target: T1, Phospholipid hydroperoxide glutathione peroxidase GPX4 (Homo sapiens); assay: Binding affinity to GPX4 in human PANC-1 cells at 0.2 uM incubated for 1 hr by SDS-PAGE analysis; type: cell-based
[13] = biological target: T1, Phospholipid hydroperoxide glutathione peroxidase GPX4 (Homo sapiens); assay: Binding affinity to GPX4 in human HPAC cells at 0.2 uM incubated for 1 hr by SDS-PAGE analysis; type: cell-based
[14] = biological target: T1, Phospholipid hydroperoxide glutathione peroxidase GPX4 (Homo sapiens); assay: Binding affinity to GPX4 in human Hs766T cells at 0.2 uM incubated for 1 hr by SDS-PAGE analysis; type: cell-based
[15] = biological target: T1, Phospholipid hydroperoxide glutathione peroxidase GPX4 (Homo sapiens); assay: Binding affinity to GPX4 in human Capan-2 cells at 0.2 uM incubated for 1 hr by SDS-PAGE analysis; type: cell-based
[16] = biological target: T1, Phospholipid hydroperoxide glutathione peroxidase GPX4 (Homo sapiens); assay: Binding affinity to GPX4 in human ASPC1 cells at 0.2 uM incubated for 12 hr followed by compound washout by SDS-PAGE analysis; type: cell-based
[17] = biological target: T2, Fructose-bisphosphate aldolase A (Homo sapiens) (UniProt P04075); assay: Binding affinity to ALDOA in human ASPC1 cells at 1 uM incubated for 5 hrs by Western blot analysis; type: cell-based
T2 sequence (whole entry): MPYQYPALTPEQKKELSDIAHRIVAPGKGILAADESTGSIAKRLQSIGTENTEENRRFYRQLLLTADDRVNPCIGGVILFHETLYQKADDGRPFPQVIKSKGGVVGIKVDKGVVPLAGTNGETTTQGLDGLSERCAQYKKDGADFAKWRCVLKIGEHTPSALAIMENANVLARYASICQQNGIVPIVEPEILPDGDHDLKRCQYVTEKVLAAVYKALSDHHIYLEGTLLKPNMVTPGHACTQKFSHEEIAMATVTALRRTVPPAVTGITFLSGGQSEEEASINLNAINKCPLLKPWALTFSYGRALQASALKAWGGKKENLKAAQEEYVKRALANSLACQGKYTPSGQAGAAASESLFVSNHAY

[18] = biological target: Large ribosomal subunit protein eL28 (Homo sapiens) (UniProt P46779); assay: Binding affinity to RL28 in human ASPC1 cells at 1 uM incubated for 5 hrs by Western blot analysis; type: cell-based
[19] = species: Homo sapiens; assay: Binding affinity to GPX4 U46C mutant (unknown origin) incubated for 1 hr by pull-down based Western blot analysis; details: dose 0.2-5 µM
[20] = biological target: T1, Phospholipid hydroperoxide glutathione peroxidase GPX4 (Homo sapiens); assay: Binding affinity to GPX4 in human ASPC1 cells incubated for 1 hr by imaging analysis; type: cell-based; details: dose 0.2-5 µM
[21] = biological target: T1, Phospholipid hydroperoxide glutathione peroxidase GPX4 (Homo sapiens); assay: Competitive binding affinity to GPX4 in human ASPC1 cells at 0.2 uM incubated for 1 hr in presence of 4-(((4-(benzo[d]thiazol-2-yl)phenyl)(methyl)amino)methyl)-N-ethynyl-N-methylbenzenesulfonamide; type: cell-based
[22] = biological target: T1, Phospholipid hydroperoxide glutathione peroxidase GPX4 (Homo sapiens); assay: Competitive binding affinity to GPX4 in human ASPC1 cells at 0.2 uM incubated for 1 hr in presence of ML210; type: cell-based
[23] = biological target: T1, Phospholipid hydroperoxide glutathione peroxidase GPX4 (Homo sapiens); assay: Competitive binding affinity to GPX4 in human ASPC1 cells at 0.2 uM incubated for 1 hr in presence of ML210 by immunofluorescence based confocal microscopic analysis; type: cell-based
[24] = system: ASPC1; assay: Induction of ferroptosis in human ASPC1 cells assessed as cell death at 2 uM in presence of Necrostatin-1; type: functional, cell-based
[25] = system: ASPC1; assay: Induction of apoptosis in human ASPC1 cells at 20 to 200 nM incubated for 48 hrs by FITC based flow cytometry analysis; type: functional, cell-based; details: dose 20-200 nM
[26] = system: ASPC1; assay: Induction of ferroptosis in human ASPC1 cells assessed as decrease in intracellular GSH level at 5 uM incubated for 5 hrs in absence of […]; type: functional, cell-based
[27] = system: ASPC1; assay: Induction of ferroptosis in human ASPC1 cells assessed as effect on ROS level at 1 uM incubated for 3 hrs in absence of […]; type: functional, cell-based
[28] = system: ASPC1; assay: Induction of ferroptosis in human ASPC1 cells assessed as effect on ROS level at 1 uM incubated for 3 hrs in presence of […]; type: functional, cell-based
[29] = system: ASPC1; assay: Induction of ferroptosis in human ASPC1 cells assessed as reduction in cell viability incubated for 24 hrs by CCK-8 assay; type: functional, cell-based; details: ASPC1, 24 h
[30] = system: ASPC1; assay: Induction of ferroptosis in human ASPC1 cells assessed as reduction in cell viability incubated for 24 hrs followed by compound washout by CCK-8 assay; type: functional, cell-based; details: ASPC1, 24 h
[31] = system: ASPC1; assay: Induction of ferroptosis in human ASPC1 cells assessed as reduction in cell viability incubated for 48 hrs followed by compound washout by CCK-8 assay; type: functional, cell-based; details: ASPC1, 48 h
[32] = system: Mus musculus; assay: In vivo target engagement at GPX4 in SCID mouse at 10 mg/kg, ip qd administered for 14 days and measured after 2 hrs by SDS-PAGE analysis; type: functional, organism-based; details: time 14.0 day
[33] = system: Mus musculus; assay: In vivo target engagement at GPX4 in SCID mouse at 10 mg/kg, ip qd administered for 14 days and measured after 2 hrs by pull-down based Western blot analysis; type: functional, organism-based; details: time 14.0 day

C#CCN(Cc1ccc(S(=O)(=O)N(C)C#C)cc1)c1ccc(-c2nc3ccccc3s2)cc1
IC50 [1]: 22 nM
IC50 [2]: 20 nM
Activity [3]: Non-Toxic
Activity [4]: Non-Toxic
Activity [5]: Active
Activity [6]: Tde
Activity [7]: Dose-Dependent Effect
Activity [8]: Active
Activity [9]: Active
Activity [10]: Active
Activity [11]: Active
Activity [12]: Active
Activity [13]: Active
Activity [14]: Active
Activity [15]: inactive
Activity [16]: Active
Activity [17]: Active
Activity [18]: Active
Activity [19]: Active
Activity [20]: Dose-Dependent Effect
Activity [21]: Active
Activity [22]: Active
Activity [23]: inactive
Activity [24]: inactive
Activity [25]: inactive
Activity [26]: Active
Activity [27]: Active
Activity [28]: Active
IC50 [29]: 37 nM
IC50 [30]: 62 nM
IC50 [31]: 33 nM
Activity [32]: Active
Activity [33]: Active
